In US10421761B2, “Compounds for kinase modulation, and indications therefor” (Plexxikon Inc., priority 2013, dated 2019):
“Also recorded” adds a separate entry of the source. Values belong to the molecule of their own block, whether it stands above or below them.

Assays:
[1] = test system: gastric cancer cell line MKN28; conditions: cited from earlier work
B9 (HRAS Q61L) cell line = assay: B9 P-ERK cell activation assay (AlphaScreen); type: cell-based, mouse
In short: (§1)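 Mouse B9 (HRAS-driven skin SCC) or human IPC-298 melanoma cells treated with an 8-point compound titration for one hour at 37° C., then lysed. ERK1/2 phosphorylation at Thr202/Tyr204 read by AlphaScreen with total-ERK and phospho-ERK antibodies.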

[2] = test system: IPC-298 (NRAS Q61L) cell line; assay: IPC-298 P-ERK cell activation assay (AlphaScreen); type: cell-based, human
In short: as §1

[3] = test system: A375 (BRAF V600E) cell line; assay: A375 P-ERK inhibition assay (AlphaScreen); type: cell-based, human
In short: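 A375 cells treated with 8-point compound titration for 1 h at 37° C, then lysed. ERK1/2 Thr202/Tyr204 phosphorylation measured by AlphaScreen, using biotinylated total-ERK antibody on donor beads and phospho-specific antibody on acceptor beads.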

[4] = test system: mutant BRAF V600 driven melanoma; conditions: cited from earlier work
B9 cells = assay: Anchorage-independent growth assay of B9 cells in soft agar; type: cell-based, mouse; conditions: 3 weeks; for effect on vemurafenib-induced B9 colony formation: combination with vemurafenib, soft agar
Protocol: Anchorage-independent growth assay. 2.5×10^4 B9 cells were plated in each well of a six-well plate with a bottom layer of 1% and a top layer of 0.4% low melting agar (Sigma A4018, Dallas, Tex.) containing RPMI1640 medium with 10% FBS. For RAF inhibitor study, B9 cells grown in soft agar were treated with vemurafenib, compound P-1000 or compound A at indicated concentration or dimethyl sulfoxide (DMSO) for 3 weeks. For EGFR ligand study, B9 cells grown in soft agar were treated with AREG (R&D systems 989-AR, Minneapolis, Minn.), TGFα (R&D systems 239-A, Minneapolis, Minn.) or HB-EGF (R&D systems 259-HE, Minneapolis, Minn.) at the indicated concentrations for 3 weeks. For vemurafenib and erlotinib combination study, B9 cells grown in soft agar were treated with vemurafenib, erlotinib or a combination of the two compounds at the indicated concentrations or DMSO for 3 weeks. Anchorage-independent colonies ≥100 μm were scored using AxioVision Rel 4.8 software (CarlZeiss, Wake Forest, N.C.).
B9 cells grown in soft agar were treated with AREG, TGFα or HBEGF at the indicated concentrations for 3 weeks. Anchorage-independent colonies ≥100 μm were scored. B9 cells grown in soft agar were treated with vemurafenib or a combination of vemurafenib and erlotinib at the indicated concentrations for 3 weeks. Anchorage-independent colonies ≥100 μm were scored.

BRAF V600E = biological target: T1, BRAF V600E (Homo sapiens, UniProt P15056, V600E); assay: BRAF V600E biochemical kinase activity assay (AlphaScreen, biotin-MEK1 substrate); conditions: BRAF V600E biochemical inhibitory activity
T1 construct: purchased Upstate Biotechnology
T1 sequence (P15056 whole entry V600E): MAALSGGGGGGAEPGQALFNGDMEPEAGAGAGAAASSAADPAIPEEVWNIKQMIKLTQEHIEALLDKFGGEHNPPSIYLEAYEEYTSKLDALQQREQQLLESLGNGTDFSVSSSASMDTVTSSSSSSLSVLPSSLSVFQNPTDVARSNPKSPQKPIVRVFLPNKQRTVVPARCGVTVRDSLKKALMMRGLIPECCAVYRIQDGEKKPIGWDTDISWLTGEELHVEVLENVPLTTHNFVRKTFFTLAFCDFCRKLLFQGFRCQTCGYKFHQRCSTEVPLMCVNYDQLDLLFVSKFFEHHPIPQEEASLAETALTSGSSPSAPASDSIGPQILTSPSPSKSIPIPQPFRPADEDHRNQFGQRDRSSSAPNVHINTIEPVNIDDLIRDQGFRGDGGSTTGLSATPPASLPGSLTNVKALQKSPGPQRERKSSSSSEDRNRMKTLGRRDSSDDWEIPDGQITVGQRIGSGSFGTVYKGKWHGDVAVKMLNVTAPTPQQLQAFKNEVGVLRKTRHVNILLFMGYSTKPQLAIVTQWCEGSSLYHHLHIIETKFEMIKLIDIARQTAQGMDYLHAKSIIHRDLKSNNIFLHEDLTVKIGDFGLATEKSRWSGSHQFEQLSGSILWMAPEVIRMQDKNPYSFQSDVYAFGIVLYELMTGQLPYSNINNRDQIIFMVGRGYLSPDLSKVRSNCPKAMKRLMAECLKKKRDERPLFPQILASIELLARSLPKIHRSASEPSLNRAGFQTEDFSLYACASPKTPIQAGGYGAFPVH

Compound: COc1ccc2c(c1)c(CC(=O)O)c(C)n2C(=O)c1ccc(Cl)cc1 [indomethacin]
proliferation and growth of MKN28 [1]: significantly inhibit proliferation and growth

Compound: CS(=O)(=O)Nc1ccc([N+](=O)[O-])cc1OC1CCCCC1 [NS-398]
proliferation and growth of MKN28 [1]: significantly inhibit proliferation and growth

Compound: CC(C)(C)c1nc(-c2cccc(NS(=O)(=O)c3c(F)cccc3F)c2F)c(-c2ccnc(N)n2)s1 [dabrafenib, reference compound]
pERK activation (B9 (HRAS Q61L) cell line; RAS mutant cell line B9, one hour treatment): unusual bell-shaped pERK activation curve | pERK activation ([2]; RAS mutant cell line IPC-298, one hour treatment): unusual bell-shaped pERK activation curve | pERK inhibition ([3]; BRAF V600E cell line A375): highly potent inhibitor | tumor response in patients [4]: objective tumor response

Compound: C#Cc1cccc(Nc2ncnc3cc(OCCOC)c(OCCOC)cc23)c1 [Erlotinib]
effect on vemurafenib-induced B9 colony formation (B9 cells): inhibited | effect on vemurafenib-induced B9 colony formation (B9 cells; listed as erlotinib): antagonizes vemurafenib-induced B9 colony formation

Compound: CCCS(=O)(=O)Nc1ccc(F)c(C(=O)c2c[nH]c3ncc(Cl)cc23)c1F [P-1000, N-[3-(5-chloro-1H-pyrrolo[2,3-b]pyridine-3-carbonyl)-2,4-difluoro-phenyl]propane-1-sulfonamide]
B9 colony formation / anchorage-independent growth in soft agar (B9 cells; colonies ≥100 μm scored): stimulated B9 colony formation; also recorded: increased anchorage independent cell growth

EC50 (B9 (HRAS Q61L) cell line; Mus musculus, P-ERK cell activation, B9, numeric bounds, read-out: Cell activity (EC50 μM) B9_pERK): > 1 µM | EC50 ([2]; Homo sapiens, P-ERK cell activation, IPC-298, numeric bounds, read-out: Cell activity (EC50 μM) IPC-298_P-ERK): > 10 µM | IC50 ([3]; Homo sapiens, A-375, A375_P-ERK): 0.0001 to 1 µM | IC50 (BRAF V600E): 0.0001 to 1 µM
Compound: O=C(c1cc(F)cc(NS(=O)(=O)N2CC[C@@H](F)C2)c1F)c1c[nH]c2ncc(-c3cnc(C4CC4)nc3)cc12 [P-2172, (3R)—N-[3-[5-(2-cyclopropylpyrimidin-5-yl)-1H-pyrrolo[2,3-b]pyridine-3-carbonyl]-2,5-difluoro-phenyl]-3-fluoro-pyrrolidine-1-sulfonamide]
